The text below walks through data of ChEMBL document CHEMBL1145124, “Identification and prediction of promiscuous aggregating inhibitors among known drugs” (J Med Chem, 2003).

For orientation: inhibition means the change of the read-out against control, counted positive when it falls. Read a high inhibition as a response far below the control. What is called IC50 is the point on the concentration scale where inhibition reaches its midpoint. Read a high IC50 as weaker potency. As usually defined, the Cmax is the maximum level reached in the sampled fluid or tissue.

For data set [1], the target named is T1, Chymotrypsin-C (Homo sapiens) (UniProt Q99895).
T1 sequence (whole entry): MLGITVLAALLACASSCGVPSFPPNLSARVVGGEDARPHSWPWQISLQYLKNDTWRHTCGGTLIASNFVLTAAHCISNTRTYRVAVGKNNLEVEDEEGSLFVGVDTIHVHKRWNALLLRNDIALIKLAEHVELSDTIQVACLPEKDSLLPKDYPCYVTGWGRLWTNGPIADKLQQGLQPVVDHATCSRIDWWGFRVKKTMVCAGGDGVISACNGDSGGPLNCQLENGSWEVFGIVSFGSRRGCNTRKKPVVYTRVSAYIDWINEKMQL
Description: Inhibition of chymotrypsin at 250 uM. To be noted: unidentified.

Data set [2] deals with Beta-lactamase (Escherichia coli K-12) (UniProt P00811). Description: Inhibition of beta-lactamase at 100 uM.
The target of data set [3] is T2, Malate dehydrogenase, cytoplasmic (Homo sapiens) (UniProt P40925).
T2 sequence (whole entry): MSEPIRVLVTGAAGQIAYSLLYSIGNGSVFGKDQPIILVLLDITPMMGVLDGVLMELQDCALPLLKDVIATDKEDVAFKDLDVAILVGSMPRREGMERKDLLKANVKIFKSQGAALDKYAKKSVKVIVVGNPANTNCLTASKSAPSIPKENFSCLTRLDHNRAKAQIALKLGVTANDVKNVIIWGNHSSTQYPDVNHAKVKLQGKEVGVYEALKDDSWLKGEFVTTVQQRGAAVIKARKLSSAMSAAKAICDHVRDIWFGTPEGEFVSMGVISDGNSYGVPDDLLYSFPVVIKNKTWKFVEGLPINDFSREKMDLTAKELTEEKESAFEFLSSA
Description: Inhibition of malate dehydrogenase (MDH) at 400 uM.

The target in data set [4] is T3, Malate dehydrogenase, mitochondrial (Sus scrofa) (UniProt P00346).
T3 sequence (whole entry): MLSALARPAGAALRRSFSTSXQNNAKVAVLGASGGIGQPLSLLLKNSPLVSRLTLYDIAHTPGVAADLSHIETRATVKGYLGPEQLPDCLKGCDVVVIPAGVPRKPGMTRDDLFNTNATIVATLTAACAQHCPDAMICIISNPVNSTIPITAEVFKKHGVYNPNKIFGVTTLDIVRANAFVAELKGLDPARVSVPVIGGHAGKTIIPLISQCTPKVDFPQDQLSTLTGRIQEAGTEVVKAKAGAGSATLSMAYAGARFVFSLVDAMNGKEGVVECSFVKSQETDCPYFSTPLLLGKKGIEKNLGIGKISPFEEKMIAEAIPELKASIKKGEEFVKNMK
Kind of data set: Compound was tested for the inhibition of malate dehydrogenase (MDH) at 200 uM.

Data set [5] concerns the target T4, Chymotrypsinogen A (Bos taurus, UniProt P00766). Description: Compound was tested for the inhibition of Chymotrypsinogen.
The target of data set [6] is Beta-lactamase (Escherichia coli K-12, UniProt P00811). Kind of data set: Compound was tested for the inhibition of beta-lactamase.
Data set [7] concerns the target T4, Chymotrypsinogen A. Description: Fold decrease in IC50 vs chymotrypsinogen on pre-incubation; increase.
Data set [8] has as its target T3, Malate dehydrogenase, mitochondrial (Sus scrofa). Kind of data set: Compound was tested for the inhibition of malate dehydrogenase (MDH) at 100 uM.
The target is the same in data set [9]. Kind of data set: Compound was tested for the inhibition of malate dehydrogenase (MDH) at 50 uM.
Data set [10] in a line: Mean maximal plasma concentration. The format is ADME, organism-based.

Beta-lactamase, sequence (P00811 whole entry): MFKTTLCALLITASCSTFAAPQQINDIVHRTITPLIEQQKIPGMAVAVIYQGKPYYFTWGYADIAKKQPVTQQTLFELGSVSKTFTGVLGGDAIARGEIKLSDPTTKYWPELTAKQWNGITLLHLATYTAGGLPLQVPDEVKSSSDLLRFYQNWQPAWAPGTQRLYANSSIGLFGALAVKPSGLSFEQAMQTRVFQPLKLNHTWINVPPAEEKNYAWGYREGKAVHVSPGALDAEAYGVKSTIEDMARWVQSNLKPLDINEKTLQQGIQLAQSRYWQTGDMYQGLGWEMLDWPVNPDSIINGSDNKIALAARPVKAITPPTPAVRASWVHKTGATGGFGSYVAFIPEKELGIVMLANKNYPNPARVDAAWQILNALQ
Beta-lactamase (Escherichia coli K-12), sequence (P00811 whole entry): as above

As to `COc1ccc2c(c1)c(CC(=O)O)c(C)n2C(=O)c1ccc(Cl)cc1`, the inhibition in data set [1] is < 5%; in data set [2] it was < 5%; in data set [3] it was 7%.

As to `O=C(O)c1cc(-c2ccc(F)cc2F)ccc1O`, the figures for the inhibition in [1], in data set [2] and in [3] were 13%, < 5% and < 5%, respectively.

Turning to `Nc1nc2ccc(OC(F)(F)F)cc2s1`, the inhibition in [1], in data set [4] and in data set [2] was < 5% in each case.

For `N=C(N)N/N=C/c1c(Cl)cccc1Cl`, the inhibition was < 5% in data set [1], 83% in [2] and 20% in data set [3].

Take `Clc1ccc(COC(Cn2ccnc2)c2ccc(Cl)cc2Cl)cc1` (centres undefined) [ECONAZOLE]: the results for the concentration for half-maximal inhibition (IC50) in data set [5] and in data set [6] were 150 µM and 25 µM, respectively.

In the case of `Cc1ccc(C)c(OCCCC(C)(C)C(=O)O)c1`, the inhibition in data set [1] was < 5%; in data set [4] it was 14%; in data set [2], < 5%.

For `Nc1nnc(-c2cccc(Cl)c2Cl)c(N)n1`, the inhibition in [1] was < 5%; in [2] it was < 5%; in data set [3] it was 11%.

As to `CCC1(c2ccccc2)C(=O)NCNC1=O`, the inhibition is < 5% in [1], < 5% in data set [2] and 13% in data set [3].

With `CN(C)CCN(Cc1ccccc1)c1ccccn1`, the inhibition in data set [1], in [2] and in data set [3] was < 5% in each case.

`Nc1ccc(O)c(C(=O)O)c1`: the inhibition is < 5% in [1], 18% in [4] and < 5% in [2].

Take `COc1cc(Cc2cnc(N)nc2N)cc(OC)c1OC`: the inhibition in data set [1], in [2] and in [3] was < 5% each time.

As for `NC(=O)N1c2ccccc2C=Cc2ccccc21`, the inhibition in [1] is < 5%; in data set [2], < 5%; in data set [3] it was 8%.

As for `O=C1C(CC[S+]([O-])c2ccccc2)C(=O)N(c2ccccc2)N1c1ccccc1` (centres undefined), the figures for the inhibition in data set [1], in data set [2] and in [3] were 27%, < 5% and 83%, respectively.

Turning to `CCc1cccc2c3c([nH]c12)C(CC)(CC(=O)O)OCC3` (centres undefined), the inhibition is < 5% in data set [1], < 5% in [2] and 9% in [3].

On to `CCCC(C)(COC(N)=O)COC(=O)NC(C)C` (centres undefined), for which the inhibition in data set [1], in data set [2] and in data set [3] was < 5% each time.

Take `O=C1CCC(N2C(=O)c3ccccc3C2=O)C(=O)N1` (centres undefined): the inhibition in data set [1], in data set [2] and in [3] was < 5% each time.

Take `Clc1ccc(CSC(Cn2ccnc2)c2ccc(Cl)cc2Cl)cc1` (centres undefined) [SULCONAZOLE]: the half-maximal inhibitory concentration (IC50) in [5] came to 110 µM.

Take `Nc1ccc(S(=O)(=O)Nc2ncccn2)cc1`: the inhibition in data set [1], in data set [4] and in data set [2] was < 5% each time.

Regarding `NCCNCCNCCNCCN`, the inhibition in data set [1], in data set [2] and in [3] was < 5% throughout.

Take `NS(=O)(=O)c1cc(C2(O)NC(=O)c3ccccc32)ccc1Cl` (centres undefined): the inhibition in data set [1], in data set [4] and in data set [2] was < 5% throughout.

On to `Nc1c2c(nc3ccccc13)CCCC2`, for which the inhibition was < 5% in data set [1], < 5% in data set [2] and 83% in [3].

`Cc1c(OCC(F)(F)F)ccnc1C[S+]([O-])c1nc2ccccc2[nH]1` (centres undefined): the inhibition in data set [1], in data set [2] and in data set [3] was < 5% each time.

Take `Cc1nccn1CC1CCc2c(c3ccccc3n2C)C1=O` (centres undefined): the inhibition in [1], in data set [2] and in [3] was < 5% in each case.

Turning to `Clc1ccc(COC(Cn2ccnc2)c2ccc(Cl)cc2Cl)c(Cl)c1` (centres undefined) [MICONAZOLE], the 50% inhibitory concentration (IC50) in data set [5] turned out to be 125 µM; in data set [6], 40 µM.

In the case of `Clc1ccccc1C(c1ccccc1)(c1ccccc1)n1ccnc1` [CLOTRIMAZOLE], the concentration for half-maximal inhibition (IC50) entry in [7] is “Increase”; in data set [5] it was 85 µM; in data set [6], 20 µM.

For `O=C(O)CCCCCCCC(=O)O`, the inhibition was < 5% in data set [1], < 5% in [2] and 8% in data set [3].

For `O=C1CN(/N=C/c2ccc([N+](=O)[O-])o2)C(=O)N1`, the inhibition was 91% in data set [1], < 5% in data set [2] and 97% in data set [3].

Take `COc1cc2nc(N3CCN(C(=O)c4ccco4)CC3)nc(N)c2cc1OC`: the results for the inhibition in data set [1], in [2] and in data set [8] were < 5%, 13% and 14%, respectively.

As to `CCn1nc(C(=O)O)c(=O)c2cc3c(cc21)OCO3`, the inhibition in [1], in data set [2] and in [9] was < 5% each time.

For `COc1ccccc1OCC(O)CO` (centres undefined), the inhibition in [1], in data set [2] and in data set [3] was < 5% in each case.

For the compound `CN(C)CCOC(c1ccccc1)c1ccccc1`, the inhibition in [1], in [2] and in [3] was < 5% each time.

With `COc1ccc(Cl)cc1C(=O)NCCc1ccc(S(=O)(=O)NC(=O)NC2CCCCC2)cc1` [GLYBURIDE], the IC50 worked out at 360 µM in data set [5] and 300 µM in data set [6]. The Cmax in [10] was 215 nM.

As for `CC(=O)N(O)CCCCCNC(=O)CCC(=O)N(O)CCCCCNC(=O)CCC(=O)N(O)CCCCCN`, the inhibition in data set [1], in data set [2] and in data set [3] was < 5% each time.

For the compound `NS(=O)(=O)c1cc(C(=O)O)c(NCc2ccco2)cc1Cl`, the inhibition in [1] is < 5%; in data set [2], < 5%; in data set [3], 21%.

With `Cc1cccc(Nc2ccncc2S(=O)(=O)NC(=O)NC(C)C)c1`, the values for the inhibition in data set [1], in [2] and in data set [3] were < 5%, < 5% and 14%, respectively.

As to `Nc1ccc(/N=N/c2ccccc2)c(N)n1`, the inhibition was 96% in data set [1], < 5% in [2] and 34% in [3].

Turning to `Cc1cc2nc3c(=O)[nH]c(=O)nc-3n(C[C@H](O)[C@H](O)[C@H](O)CO)c2cc1C`, the inhibition in data set [1], in data set [2] and in data set [8] was < 5% throughout.

As for `CC(C)C(=O)Nc1ccc([N+](=O)[O-])c(C(F)(F)F)c1`, the inhibition in data set [1], in [2] and in data set [8] was < 5% throughout.

Consider `COc1ccc2[nH]c([S+]([O-])Cc3ncc(C)c(OC)c3C)nc2c1` (centres undefined), for which the inhibition in data set [1], in data set [2] and in data set [3] was < 5% throughout.

Take `CNCCCC1c2ccccc2C=Cc2ccccc21`: the inhibition in data set [1], in data set [2] and in data set [3] was < 5% each time.

As to `CCN(CC)CC(=O)Nc1c(C)cccc1C`, the inhibition in data set [1], in [2] and in [3] was < 5% each time.

Turning to `Cc1oncc1C(=O)Nc1ccc(C(F)(F)F)cc1`, the inhibition in data set [1] is < 5%; in [2] it was < 5%; in data set [3], 12%.

On to `Nc1cc(-c2ccncc2)c[nH]c1=O`, for which the inhibition in data set [1], in [2] and in [9] was < 5% throughout.

For the compound `Nc1ccc(S(=O)(=O)c2ccc(N)cc2)cc1`, the inhibition is < 5% in data set [1], < 5% in data set [2] and 11% in [3].

As to `O=C(O)CCCc1ccc(N(CCCl)CCCl)cc1`, the inhibition was 23% in [1], < 5% in data set [2] and 44% in [3].

On to `COC(=O)Nc1nc2cc(C(=O)c3ccccc3)ccc2[nH]1`, for which the values for the inhibition in data set [1], in data set [2] and in data set [3] were < 5%, < 5% and 15%, respectively.

Consider `Nc1nc(N)c2nc(-c3ccccc3)c(N)nc2n1`, for which the inhibition is < 5% in data set [1], < 5% in data set [2] and 21% in data set [9].

In the case of `CC(C)Nc1cccnc1N1CCN(C(=O)c2cc3cc(NS(C)(=O)=O)ccc3[nH]2)CC1` [DELAVIRDINE], the IC50 in data set [5] worked out at 225 µM; in [6], 90 µM.
